Type in all cases: biochemical
One assay concerns the target T1, Human Tyk2 kinase domain (Homo sapiens, UniProt P29597).
T1 construct: comprising amino acids 886 to 1187; His10 (10 histidine residues) (C, cleaved yes); made in house
T1 sequence (P29597 886-1187): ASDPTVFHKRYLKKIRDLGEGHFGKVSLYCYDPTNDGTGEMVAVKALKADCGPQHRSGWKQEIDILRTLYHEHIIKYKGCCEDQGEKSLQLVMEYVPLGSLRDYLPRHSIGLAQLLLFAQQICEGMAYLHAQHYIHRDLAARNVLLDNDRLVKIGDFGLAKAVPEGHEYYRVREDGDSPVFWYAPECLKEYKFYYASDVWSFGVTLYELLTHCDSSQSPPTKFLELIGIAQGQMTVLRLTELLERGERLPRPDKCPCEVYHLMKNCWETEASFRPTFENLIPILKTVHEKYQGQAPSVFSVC
As to the kind of experiment: Tyk2 Inhibition Assay (Omnia kinase fluorescence peptide substrate). Particulars: averaged IC50 ranges; 10 μM (Km app) or 1 mM ATP, 2 nM Tyk2. The gist of the method: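 Phosphorylation of 8 μM Omnia Y12 peptide followed kinetically by Sox fluorescence, ex 360/em 485 nm, every 50 s for 45 min. Enzyme: 2 nM Tyk2 kinase domain (aa 886–1187, His tag removed); ATP at 10 μM (Km app) or 1 mM; buffer HEPES pH 7.4 with MgCl2, Triton X-100, DTT. 10-point curves up to 10 μM, IC50 from 4-parameter logistic fit.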

In another assay the target is T2, JAK1 (Homo sapiens, UniProt P23458).
T2 construct: purchased Invitrogen Corporation, Carlsbad, Calif; IVGN PV4775
T2 sequence (P23458 whole entry): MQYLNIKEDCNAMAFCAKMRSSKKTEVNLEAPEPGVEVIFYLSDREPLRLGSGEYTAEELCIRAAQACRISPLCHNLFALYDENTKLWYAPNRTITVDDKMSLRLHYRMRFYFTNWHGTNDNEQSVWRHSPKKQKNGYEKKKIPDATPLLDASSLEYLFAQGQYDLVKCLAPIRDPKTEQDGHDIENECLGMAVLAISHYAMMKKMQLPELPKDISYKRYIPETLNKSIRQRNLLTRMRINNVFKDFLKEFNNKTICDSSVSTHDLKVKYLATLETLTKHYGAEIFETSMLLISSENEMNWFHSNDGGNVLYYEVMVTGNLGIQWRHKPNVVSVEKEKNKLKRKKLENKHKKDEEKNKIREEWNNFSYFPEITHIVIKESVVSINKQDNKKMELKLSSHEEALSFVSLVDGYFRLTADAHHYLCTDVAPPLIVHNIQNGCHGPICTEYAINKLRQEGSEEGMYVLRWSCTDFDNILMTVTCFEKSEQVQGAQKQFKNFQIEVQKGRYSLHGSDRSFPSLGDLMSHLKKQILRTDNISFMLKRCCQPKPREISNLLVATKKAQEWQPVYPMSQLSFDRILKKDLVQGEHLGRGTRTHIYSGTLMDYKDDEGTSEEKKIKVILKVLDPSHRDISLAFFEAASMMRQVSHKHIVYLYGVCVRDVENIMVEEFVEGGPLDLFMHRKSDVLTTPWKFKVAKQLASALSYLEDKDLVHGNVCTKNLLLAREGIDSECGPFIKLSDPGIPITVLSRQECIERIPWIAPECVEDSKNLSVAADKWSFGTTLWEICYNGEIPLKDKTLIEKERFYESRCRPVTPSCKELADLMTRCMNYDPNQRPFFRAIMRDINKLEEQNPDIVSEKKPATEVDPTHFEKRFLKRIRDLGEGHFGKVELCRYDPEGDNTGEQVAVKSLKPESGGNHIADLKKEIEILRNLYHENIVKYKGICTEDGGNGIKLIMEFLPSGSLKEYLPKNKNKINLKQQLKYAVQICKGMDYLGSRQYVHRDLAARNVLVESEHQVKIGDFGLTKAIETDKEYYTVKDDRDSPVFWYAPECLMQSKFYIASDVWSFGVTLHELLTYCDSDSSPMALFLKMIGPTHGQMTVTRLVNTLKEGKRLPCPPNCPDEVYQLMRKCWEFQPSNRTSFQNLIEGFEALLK
As to the kind of experiment: JAK1 Inhibition Assay (Omnia kinase fluorescence peptide substrate). Particulars: averaged IC50 ranges; 40 μM (Km app) or 1 mM ATP, 15 nM JAK1. An outline of the steps: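 15 nM JAK1, 8 μM Omnia Y12 peptide, 40 μM (Km app) or 1 mM ATP; 25 mM HEPES pH 7.4, 10 mM MgCl2, 2% DMSO. Fluorescence (ex 360/em 485 nm) read every 50 s over 45 min. IC50 by 4-parameter fit of percent of control, top dose 10 μM.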

The next assay concerns the target T3, JAK2 (Homo sapiens, UniProt O60674).
T3 construct: purchased Invitrogen Corporation, Carlsbad, Calif; IVGN PV4288
In words: JAK2 Inhibition Assay (Omnia kinase fluorescence peptide substrate). Particulars: averaged IC50 ranges; 25 μM (Km app) or 1 mM ATP, 5 nM JAK2.

In another assay the target is T4, JAK3 (Homo sapiens, UniProt P52333).
T4 construct: purchased Invitrogen Corporation, Carlsbad, Calif; IVGN PV4080
T4 sequence (P52333 1-1124): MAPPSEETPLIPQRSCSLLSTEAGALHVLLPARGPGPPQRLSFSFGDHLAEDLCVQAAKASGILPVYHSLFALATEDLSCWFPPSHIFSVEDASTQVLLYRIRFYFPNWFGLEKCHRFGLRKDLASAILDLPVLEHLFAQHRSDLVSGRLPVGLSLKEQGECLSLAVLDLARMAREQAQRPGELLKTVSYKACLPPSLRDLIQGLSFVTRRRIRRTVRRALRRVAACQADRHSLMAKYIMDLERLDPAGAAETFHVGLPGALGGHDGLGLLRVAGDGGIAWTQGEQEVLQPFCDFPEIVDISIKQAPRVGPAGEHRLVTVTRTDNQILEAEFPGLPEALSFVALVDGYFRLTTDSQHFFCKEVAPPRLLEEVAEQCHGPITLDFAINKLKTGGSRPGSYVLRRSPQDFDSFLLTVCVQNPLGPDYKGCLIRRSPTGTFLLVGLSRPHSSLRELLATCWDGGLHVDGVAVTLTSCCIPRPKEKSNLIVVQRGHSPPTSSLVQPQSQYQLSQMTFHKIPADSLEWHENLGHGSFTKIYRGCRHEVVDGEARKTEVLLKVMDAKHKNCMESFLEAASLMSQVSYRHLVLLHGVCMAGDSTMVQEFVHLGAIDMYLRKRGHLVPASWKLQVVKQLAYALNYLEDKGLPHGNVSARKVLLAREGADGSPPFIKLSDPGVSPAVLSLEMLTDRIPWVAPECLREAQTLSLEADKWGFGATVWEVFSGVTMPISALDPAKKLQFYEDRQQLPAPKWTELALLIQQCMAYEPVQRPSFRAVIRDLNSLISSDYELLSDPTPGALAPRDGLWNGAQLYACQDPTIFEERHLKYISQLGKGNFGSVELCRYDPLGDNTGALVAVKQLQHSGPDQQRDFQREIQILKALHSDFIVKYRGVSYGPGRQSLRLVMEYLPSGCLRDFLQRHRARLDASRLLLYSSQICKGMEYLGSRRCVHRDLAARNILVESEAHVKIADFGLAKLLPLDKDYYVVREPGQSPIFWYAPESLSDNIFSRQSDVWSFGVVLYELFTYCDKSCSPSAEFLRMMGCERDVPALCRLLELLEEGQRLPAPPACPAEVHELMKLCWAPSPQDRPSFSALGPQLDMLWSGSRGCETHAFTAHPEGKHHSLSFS
In words: JAK3 Inhibition Assay (Omnia kinase fluorescence peptide substrate). Particulars: averaged IC50 ranges; 10 μM (Km app) or 1 mM ATP, 2.5 nM JAK3. The gist of the method:
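IC50 is the concentration giving 50 percent of control on a 4-parameter logistic fit of 10-point, 3-fold dilutions from a 10 μM top dose, at 2% final DMSO. Kinetic Sox fluorescence (360/485 nm) was monitored every 50 s for 45 min. Mix: JAK3 2.5 nM, Omnia Y7 peptide 10 μM, ATP 10 μM (Km app) or 1 mM, in HEPES pH 7.4 buffer with MgCl2, Triton X-100 and DTT.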

In assay [1] the test system is Tyk2, JAK1, JAK2 and JAK3. As to the kind of experiment: in vitro assays (Examples A, B, C and D) taken together. Particulars: Reference Examples; statement in words. An excerpt:
The assays described in Examples A, B, C and D for the determination of Tyk2, JAK1, JAK2 and JAK3 kinase activity, respectively, utilized the Omnia® Kinase fluorescence peptide substrate-based technology (Invitrogen). The specific components of the assay mixture are described in Examples A, B, C and D. In these assays, Mg^2+ is chelated upon phosphorylation of the Omnia peptide by the kinase to form a bridge between the chelation-enhanced fluorophore Sox and the phosphate, resulting in an increase in fluorescence emission at 485 nm when excited at […]. The reactions were therefore read at excitation 360 nm and emission was measured at 485 nm every 50 seconds for 45 minutes using a PerkinElmer EnVision Multilabel Plate Reader.
The final buffer conditions for Tyk2, JAK1, JAK2, and JAK3 assays were as follows: 25 mM HEPES, pH 7.4, 10 mM MgCl2, 0.01% Triton X-100 and 1 mM DTT.
Compounds were prepared at 50× the final concentration in DMSO by conducting 3-fold serial dilutions from a 500-μM intermediate dilution to give a 10-point dosing curve having a high dose of 10 μM. Two-μL aliquots of these were transferred to a fresh plate for a ten-fold intermediate dilution with assay buffer. Five-μL aliquots of the diluted compounds were then transferred to 20-μL of assay mixtures described in Examples A, B, C and D for a final concentration of DMSO of 2%. A standard or reference compound was typically included on each assay plate to validate that plate. For each plate, percent of control (POC) values were calculated for each well according to the following equation: […]
Compounds of Formula I were screened for their ability to inhibit Tyk2 using the general enzyme inhibition assay method, in which the assay mixture contained 10 μM (Km app) or 1 mM ATP, 8 μM Omnia® Y12 peptide (Catalog #IVGN KPZ3121C; Invitrogen Corporation, Carlsbad, Calif.) and 2 nM Tyk2 in a total volume of 20 μL. Human Tyk2 kinase domain, comprising amino acids 886 to 1187 with 10 additional histidine residues (histidine tag) on the carboxy terminus, was expressed and purified from bacculovirus in-house at Array BioPharma Inc. (Boulder, Colo.). The histidine tag was cleaved after purification using standard conditions.
Compounds of Formula I were screened for their ability to inhibit JAK1 using the general enzyme inhibition assay method, in which the assay mixture contained 40 μM (Km app) or 1 mM ATP, 8 μM Omnia® Y12 peptide (Catalog #IVGN KPZ3121C; Invitrogen Corporation, Carlsbad, Calif.) and 15 nM JAK1 in a total volume of 20 μL. JAK1 was purchased from Invitrogen Corporation, Carlsbad, Calif. (catalog #IVGN PV4775).
Compounds of Formula I were screened for their ability to inhibit JAK2 using the general enzyme inhibition assay method, in which the assay mixture contained 25 μM (Km app) or 1 mM ATP, 10 μM Omnia® Y7 peptide (Catalog #IVGN KNZ3071C, Invitrogen Corporation, Carlsbad, Calif.) and 5 nM JAK2 in a total volume of 20 μL. JAK2 was purchased from Invitrogen Corporation, Carlsbad, Calif. (catalog #IVGN PV4288).
Compounds of Formula I were screened for their ability to inhibit JAK3 using the general enzyme inhibition assay method, in which the assay mixture contained 10 μM (Km app) or 1 mM ATP, 10 μM Omnia® Y7 peptide (Catalog #IVGN KNZ3071C, Invitrogen Corporation, Carlsbad, Calif.) and 2.5 nM JAK3 in a total volume of 20 μL. JAK3 was purchased from Invitrogen Corporation, Carlsbad, Calif. (catalog #IVGN PV4080).

T3 sequence (O60674 whole entry): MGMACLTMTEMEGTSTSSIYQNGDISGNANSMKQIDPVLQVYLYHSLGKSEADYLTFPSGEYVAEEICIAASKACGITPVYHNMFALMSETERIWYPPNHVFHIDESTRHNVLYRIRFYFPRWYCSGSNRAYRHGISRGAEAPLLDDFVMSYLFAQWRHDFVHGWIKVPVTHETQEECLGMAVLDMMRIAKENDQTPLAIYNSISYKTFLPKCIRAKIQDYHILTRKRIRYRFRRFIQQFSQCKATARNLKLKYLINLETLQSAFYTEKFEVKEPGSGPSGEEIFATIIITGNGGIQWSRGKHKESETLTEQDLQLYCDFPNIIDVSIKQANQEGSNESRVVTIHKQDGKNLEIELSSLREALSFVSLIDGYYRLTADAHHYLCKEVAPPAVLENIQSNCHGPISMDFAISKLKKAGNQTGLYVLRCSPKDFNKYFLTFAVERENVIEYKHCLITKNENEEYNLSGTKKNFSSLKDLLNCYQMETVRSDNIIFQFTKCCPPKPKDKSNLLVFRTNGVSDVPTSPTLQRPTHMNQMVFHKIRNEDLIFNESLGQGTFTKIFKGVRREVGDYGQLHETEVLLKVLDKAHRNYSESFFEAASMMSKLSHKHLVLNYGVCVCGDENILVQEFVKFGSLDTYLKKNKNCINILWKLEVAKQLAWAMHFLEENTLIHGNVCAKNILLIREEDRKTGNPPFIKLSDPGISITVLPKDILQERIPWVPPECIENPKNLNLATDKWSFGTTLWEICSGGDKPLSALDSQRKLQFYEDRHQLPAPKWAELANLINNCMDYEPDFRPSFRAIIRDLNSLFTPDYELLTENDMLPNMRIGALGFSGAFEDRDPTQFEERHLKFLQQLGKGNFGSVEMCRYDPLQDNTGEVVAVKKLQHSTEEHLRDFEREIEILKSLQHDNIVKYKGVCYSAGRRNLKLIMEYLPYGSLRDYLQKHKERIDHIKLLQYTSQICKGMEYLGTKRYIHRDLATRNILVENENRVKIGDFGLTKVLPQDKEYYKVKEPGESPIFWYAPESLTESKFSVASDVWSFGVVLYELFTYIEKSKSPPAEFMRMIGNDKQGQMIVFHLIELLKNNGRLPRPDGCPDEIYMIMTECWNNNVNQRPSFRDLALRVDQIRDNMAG

The IC50 is the point on the concentration scale where inhibition reaches its midpoint. Take `CCN1CC(CCF)(n2cc(-c3nc(-c4cnn(C)c4)cc4nccn34)cn2)C1` [Example 84, 5-(1-(1-ethyl-3-(2-fluoroethyl)azetidin-3-yl)-1H-pyrazol-4-yl)-7-(1-methyl-1H-pyrazol-4-yl)imidazo[1,2-c]pyrimidine]: the IC50 against Human Tyk2 kinase domain, against JAK1, against JAK2 and at JAK3 was over 1000 nM throughout. Moreover, the “activity in the in vitro assays” value in assay [1] is given as “weakly active”.
Regarding `COCCC(C1CCOC1)n1cc(-c2nc(-c3cnn(C)c3)cc3nccn23)cn1` (stereo not shown) [Example 75, 5-(1-(3-methoxy-1-(tetrahydrofuran-3-yl)propyl)-1H-pyrazol-4-yl)-7-(1-methyl-1H-pyrazol-4-yl)imidazo[1,2-c]pyrimidine], the IC50 at Human Tyk2 kinase domain, against JAK1, at JAK2 and against JAK3 was over 1000 nM each time. In addition, the “activity in the in vitro assays” value in assay [1] was “weakly active”.
In the case of `Cn1cc(-c2cc3nccn3c(-c3cnn(C4(CCF)CN(C(=O)C5CC5)C4)c3)n2)cn1` [Example 97, cyclopropyl(3-(2-fluoroethyl)-3-(4-(7-(1-methyl-1H-pyrazol-4-yl)imidazo[1,2-c]pyrimidin-5-yl)-1H-pyrazol-1-yl)azetidin-1-yl)methanone], the IC50 against Human Tyk2 kinase domain, on JAK1, on JAK2 and against JAK3 was over 1000 nM in each case. Besides, the “activity in the in vitro assays” value in assay [1] is given as “weakly active”.
As for `CN(C)C(=O)N1CC(CCF)(n2cc(-c3nc(-c4cnn(C)c4)cc4nccn34)cn2)C1` [Example 93, 3-(2-fluoroethyl)-N,N-dimethyl-3-(4-(7-(1-methyl-1H-pyrazol-4-yl)imidazo[1,2-c]pyrimidin-5-yl)-1H-pyrazol-1-yl)azetidine-1-carboxamide], the IC50 on Human Tyk2 kinase domain, at JAK1, against JAK2 and against JAK3 was over 1000 nM throughout. The “activity in the in vitro assays” value in assay [1] is recorded as “weakly active”.
For the molecule `CCNC(=O)N1CC(CCF)(n2cc(-c3nc(-c4cnn(C)c4)cc4nccn34)cn2)C1` [Example 92, N-ethyl-3-(2-fluoroethyl)-3-(4-(7-(1-methyl-1H-pyrazol-4-yl)imidazo[1,2-c]pyrimidin-5-yl)-1H-pyrazol-1-yl)azetidine-1-carboxamide], the IC50 against Human Tyk2 kinase domain, against JAK1, on JAK2 and at JAK3 was over 1000 nM each time. The “activity in the in vitro assays” value in assay [1] was “weakly active”.
On to `COCCC(C1CC1(F)F)n1cc(-c2nc(-c3cnn(C)c3)cc3nccn23)cn1` (stereo not shown) [Example 31], for which the 50% inhibitory concentration (IC50) on Human Tyk2 kinase domain, against JAK1, on JAK2 and against JAK3 was 100 to 1000 nM each time.
For `Cn1cc(-c2cc3nccn3c(-c3cnn([C@H](CCF)C4CCC4)c3)n2)cn1` [Example 36, (R)-5-(1-(1-cyclobutyl-3-fluoropropyl)-1H-pyrazol-4-yl)-7-(1-methyl-1H-pyrazol-4-yl)imidazo[1,2-c]pyrimidine], the IC50 at Human Tyk2 kinase domain was under 10 nM; against JAK1 it was 100 to 1000 nM; on JAK2, 10 to 100 nM; on JAK3, 100 to 1000 nM.
With `Cn1cc(-c2cc3nccn3c(-c3cnn(C4(CCO)CCC4)c3)n2)cn1` [Example 56, 2-(1-(4-(7-(1-methyl-1H-pyrazol-4-yl)imidazo[1,2-c]pyrimidin-5-yl)-1H-pyrazol-1-yl)cyclobutyl)ethanol], the concentration for half-maximal inhibition (IC50) at Human Tyk2 kinase domain was 100 to 1000 nM; on JAK1, over 1000 nM; against JAK2, over 1000 nM; on JAK3, over 1000 nM.

The values above are taken from patent US20140228349A1, “5,7-SUBSTITUTED-IMIDAZO[1,2-C]PYRIMIDINES” (Array BioPharma Inc., priority 2011, published 2014).
